pIC50: −log10 of the molar value. Active and inactive are the calls of the source. The rule behind the calls is not given here.
Tests used:
[1] = biological target: T1, Histone-lysine N-methyltransferase NSD3 (Homo sapiens) (UniProt Q9BZ95); assay: Induction of NSD3 degradation in human NCI-H1703 cells at 5 uM incubated for 72 hrs by Western blot analysis; format: cell-based
T1 sequence (whole entry): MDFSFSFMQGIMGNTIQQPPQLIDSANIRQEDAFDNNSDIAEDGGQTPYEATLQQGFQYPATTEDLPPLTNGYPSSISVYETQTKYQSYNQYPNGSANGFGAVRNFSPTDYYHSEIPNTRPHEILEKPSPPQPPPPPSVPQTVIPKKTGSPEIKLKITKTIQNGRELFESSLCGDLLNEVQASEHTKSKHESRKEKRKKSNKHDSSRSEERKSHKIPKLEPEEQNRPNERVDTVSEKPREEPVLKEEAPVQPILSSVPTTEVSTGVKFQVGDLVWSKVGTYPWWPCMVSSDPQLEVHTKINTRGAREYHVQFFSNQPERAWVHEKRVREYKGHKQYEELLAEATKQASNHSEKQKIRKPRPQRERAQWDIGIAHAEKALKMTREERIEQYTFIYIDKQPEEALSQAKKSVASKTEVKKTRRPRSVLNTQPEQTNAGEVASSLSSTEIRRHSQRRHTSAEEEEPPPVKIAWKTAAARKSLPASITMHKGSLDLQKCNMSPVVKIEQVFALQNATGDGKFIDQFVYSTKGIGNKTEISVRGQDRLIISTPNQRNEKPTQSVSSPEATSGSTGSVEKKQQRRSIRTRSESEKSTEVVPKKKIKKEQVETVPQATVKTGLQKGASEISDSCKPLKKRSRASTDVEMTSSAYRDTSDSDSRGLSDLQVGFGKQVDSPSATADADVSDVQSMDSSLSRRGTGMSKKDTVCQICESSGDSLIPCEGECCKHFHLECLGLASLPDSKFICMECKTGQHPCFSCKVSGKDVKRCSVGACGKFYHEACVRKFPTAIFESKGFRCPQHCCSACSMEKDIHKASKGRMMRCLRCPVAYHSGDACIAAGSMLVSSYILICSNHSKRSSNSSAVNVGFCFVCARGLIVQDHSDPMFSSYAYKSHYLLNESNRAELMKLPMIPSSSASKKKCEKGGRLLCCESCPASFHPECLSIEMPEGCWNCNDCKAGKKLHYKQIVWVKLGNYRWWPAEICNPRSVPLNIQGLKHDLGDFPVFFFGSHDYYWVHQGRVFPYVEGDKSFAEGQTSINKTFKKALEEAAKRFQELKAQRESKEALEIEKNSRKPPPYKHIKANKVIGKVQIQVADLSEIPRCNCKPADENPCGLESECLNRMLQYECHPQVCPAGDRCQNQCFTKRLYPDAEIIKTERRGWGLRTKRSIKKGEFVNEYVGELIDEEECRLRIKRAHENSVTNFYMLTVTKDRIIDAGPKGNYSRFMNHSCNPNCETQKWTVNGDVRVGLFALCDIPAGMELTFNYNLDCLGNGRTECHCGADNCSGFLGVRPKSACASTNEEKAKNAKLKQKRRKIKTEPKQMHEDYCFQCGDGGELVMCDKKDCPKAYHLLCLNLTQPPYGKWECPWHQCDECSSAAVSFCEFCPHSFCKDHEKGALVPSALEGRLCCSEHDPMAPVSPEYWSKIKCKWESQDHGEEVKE

[2] = biological target: T1, Histone-lysine N-methyltransferase NSD3 (Homo sapiens); assay: Induction of NSD3 degradation in human NCI-H1703 cells at 5 uM measured within 12 hrs by Western blot analysis; format: cell-based
[3] = biological target: T1, Histone-lysine N-methyltransferase NSD3 (Homo sapiens); assay: Induction of NSD3 degradation in human NCI-H1703 cells at 0.001 to 5 uM by Western blot analysis; format: cell-based; conditions: dose 0.001-5 µM, time 12-72 hrs, TDE = time-dependent effect
[4] = biological target: T1, Histone-lysine N-methyltransferase NSD3 (Homo sapiens); assay: Induction of NSD3 degradation in human NCI-H1703 cells at 3 uM incubated for 48 hrs in presence of MG132 by Western blot analysis; format: cell-based
[5] = biological target: T1, Histone-lysine N-methyltransferase NSD3 (Homo sapiens); assay: Induction of NSD3 degradation in human NCI-H1703 cells assessed as reduction in H3K36me3 methylation incubated for 72 hrs by Western blot analysis; format: cell-based; conditions: dose 3-7.5 µM
[6] = biological target: T1, Histone-lysine N-methyltransferase NSD3 (Homo sapiens); assay: Induction of NSD3 degradation in human A549 cells assessed as reduction in H3K36me3 methylation incubated for 72 hrs by Western blot analysis; format: cell-based; conditions: dose 5-10 µM
NCI-H520 [7] = assay: Downregulation of CDC25A level in human NCI-H520 cells at 3 to […] by Western blot analysis; format: functional, cell-based; conditions: dose 3-7.5 µM
NCI-H520 [8] = assay: Induction of apoptosis in human NCI-H520 cells assessed as decrease in Bcl-XL protein expression at 5 to 10 uM by Western blot analysis; format: functional, cell-based; conditions: dose 5-10 µM
NCI-H1703 [9] = assay: Induction of apoptosis in human NCI-H1703 cells assessed as viable cells at 3 uM measured after 72 hrs by PI/Annexin-V staining based flow cytometry analysis (reference value: 92.7% ); format: functional; conditions: read-out: Activity
NCI-H1703 [10] = assay: Induction of apoptosis in human NCI-H1703 cells assessed as viable cells at 5 uM measured after 72 hrs by PI/Annexin-V staining based flow cytometry analysis (reference value: 92.7% ); format: functional; conditions: read-out: Activity
NCI-H1703 [11] = assay: Induction of apoptosis in human NCI-H1703 cells assessed as viable cells at […] measured after 72 hrs by PI/Annexin-V staining based flow cytometry analysis (reference value: 92.7% ); format: functional; conditions: dose 7.5 µM, read-out: Activity
NCI-H1703 [12] = assay: Induction of apoptosis in human NCI-H1703 cells assessed as late apoptotic cells at 10 uM measured after 72 hrs by PI/Annexin-V staining based flow cytometry analysis (reference value: 3.00% ); format: functional
NCI-H1703 [13] = assay: Antiproliferative activity against human NCI-H1703 cells incubated for 6 days by CCK-8 method; format: functional, cell-based; conditions: NCI-H1703, 144 h
[14] = Downregulation of NSD3 level in human NCI-H520 cells at 3 uM by measuring fold change by Western blot analysis relative to control; format: functional
[15] = Downregulation of CDC25A level in human NCI-H520 cells at 3 uM by measuring fold change by Western blot analysis relative to control; format: functional
[16] = Downregulation of Cyclin D1 level in human NCI-H520 cells at 5 uM by measuring fold change by Western blot analysis relative to control; format: functional
NCI-H1703 [17] = assay: Induction of apoptosis in human NCI-H1703 cells assessed as decrease in MCL-1 protein expression at 5 uM by measuring fold change by Western blot analysis relative to control; format: functional
NCI-H1703 [18] = assay: Induction of apoptosis in human NCI-H1703 cells assessed as decrease in MCL-1 protein expression at 10 uM by measuring fold change by Western blot analysis relative to control; format: functional
NCI-H520 [19] = assay: Induction of apoptosis in human NCI-H520 cells assessed as decrease in NSD3 protein expression at 10 uM by measuring fold change by Western blot analysis relative to control; format: functional
NCI-H520 [20] = assay: Induction of apoptosis in human NCI-H520 cells assessed as decrease in MCL-1 protein expression at […] by measuring fold change by Western blot analysis relative to control; format: functional; conditions: dose 7.5 µM
NCI-H520 [21] = assay: Induction of apoptosis in human NCI-H520 cells assessed as decrease in Bcl-XL protein expression at 10 uM by measuring fold change by Western blot analysis relative to control; format: functional

NSD3 degradation [1]: 58.9%
Activity [2]: Active
Activity [3]: Tde
Activity [4]: inactive
Activity [5]: Dose-Dependent Effect
Activity [6]: Dose-Dependent Effect
pIC50 (NCI-H1703 [13]): 5.56
SMILES: Cc1cc(CNCCCCCCCCCCC(=O)N[C@H](C(=O)N2C[C@H](O)C[C@H]2C(=O)N[C@@H](C)c2ccc(-c3scnc3C)cc2)C(C)(C)C)cc(C)c1-c1ncn(C)c1-c1ccnc2cc(F)ccc12
Activity (NCI-H520 [7]): Active
Activity (NCI-H520 [8]): Active
viability at 3 µM (NCI-H1703 [9]): 94.2%
viability at 5 µM (NCI-H1703 [10]): 81.2%
viability at […] (NCI-H1703 [11]): 66.7%
Activity (NCI-H1703 [12]): 62.9%
fold change (FC) [14]: 0.67
fold change (FC) [15]: 0.9
fold change (FC) [16]: 0.8
fold change (FC) (NCI-H1703 [17]): 0.8
fold change (FC) (NCI-H1703 [18]): 0.53
fold change (FC) (NCI-H520 [19]): 0.49
fold change (FC) (NCI-H520 [20]): 0.61
fold change (FC) (NCI-H520 [21]): 0.89
